Measured values as given in the NIST ThermoML archive (doi:10.1021/je049953t).
Numbers after ± are expanded uncertainties.

Key:
[1] = 298.15 K; 101.33 kPa; Liquid
[2] = excess molar enthalpy (molar enthalpy of mixing); xn = mol fraction of the nth substance listed; settings: 101.33 kPa, Liquid, Flow calorimetry

`CCCC(C)C` [2-methylpentane] showed a mass density [1] of 648.45 ± 0.44 kg/m3.
Compound `CCCC(C)C` [2-methylpentane] + CN(C)C=O has an excess molar enthalpy ([2]; 298.15 K, x1 = 0.03) of 0.0551 ± 0.00148 kcal/mol, an excess molar enthalpy ([2]; 298.15 K, x1 = 0.0611) of 0.105 ± 0.00239 kcal/mol and an excess molar enthalpy ([2]; 298.15 K, x1 = 0.0613) of 0.105 ± 0.00239 kcal/mol. For the same compound, the excess molar enthalpy ([2]; 298.15 K, x1 = 0.094) was 0.154 ± 0.00335 kcal/mol, the excess molar enthalpy ([2]; 298.15 K, x1 = 0.9462) was 0.112 ± 0.00239 kcal/mol and the excess molar enthalpy ([2]; 313.15 K, x1 = 0.03) was 0.0551 ± 0.00148 kcal/mol. For the same compound, the excess molar enthalpy ([2]; 313.15 K, x1 = 0.0611) was 0.107 ± 0.00239 kcal/mol, the excess molar enthalpy ([2]; 313.15 K, x1 = 0.0613) was 0.108 ± 0.00239 kcal/mol and the excess molar enthalpy ([2]; 313.15 K, x1 = 0.094) was 0.157 ± 0.00359 kcal/mol. For the same compound, the excess molar enthalpy ([2]; 313.15 K, x1 = 0.1281) was 0.202 ± 0.0043 kcal/mol, the excess molar enthalpy ([2]; 313.15 K, x1 = 0.9178) was 0.174 ± 0.00382 kcal/mol and the excess molar enthalpy ([2]; 313.15 K, x1 = 0.9462) was 0.113 ± 0.00263 kcal/mol. For the same compound, the excess molar enthalpy ([2]; 313.15 K, x1 = 0.9469) was 0.11 ± 0.00263 kcal/mol.
Compound `CN(C)C=O` [dimethylformamide] has a mass density [1] of 943.81 ± 0.15 kg/m3.
